{"source": "paper PMC6934184", "about": "“Selective DNA-PKcs inhibition extends the therapeutic index of localized radiotherapy and chemotherapy” (The Journal of Clinical Investigation, 2019)", "test_system": "MCF7 cells", "assay": "clonogenic survival with 2 Gy IR, DNA repair inhibitors", "format": "cell-based, Human", "settings": "1 h before and 24 h after IR", "protocol": "Cells were washed in phosphate-buffered saline (PBS), trypsinized and counted. Cells were then reseeded at a known density in drug-free medium into 10 cm dishes (100 - 10 000 cells/dish) and incubated for 8-21 days. Colonies were fixed using Carnoys fixture (75% v/v methanol, 25% v/v acetic acid, Fisher), stained with crystal violet (0.4% w/v in water), and counted using a ColCount automated colony counter (Oxford Optronics). Cell survival was calculated as a percentage of the untreated control.\nAlternatively, exponentially growing MCF7 cells were exposed to a range of concentrations of the PARP inhibitor rucaparib, the ATM inhibitor KU55933, the ATR inhibitor VE-821 or NU5455 for 1 hour prior to irradiation with 2 Gy. Cells were then incubated in the continued presence of the DNA repair inhibitors for a further 24 hours prior to replating. […]"}
{"compound": "CN(C(=O)CN1CCOCC1)c1ccc2sc3c(-c4cccc5c(=O)cc(N6CC7CCC(C6)O7)oc45)cccc3c2c1", "note": "[NU5455]", "values": [{"measurement": "SER (sensitization enhancement ratio), enhancement of 2 Gy IR clonogenic cell killing", "setting": "at 1 μM", "value": 11.5, "unit": "fold"}, {"measurement": "SER (sensitization enhancement ratio), enhancement of 2 Gy IR clonogenic cell killing", "setting": "at 3 μM", "value": 38, "unit": "fold"}]}
